From ChEMBL document CHEMBL3875185, “Structure-anticonvulsant activity studies in the group of (E)-N-cinnamoyl aminoalkanols derivatives monosubstituted in phenyl ring with 4-Cl, 4-CH3 or 2-CH3” (Bioorg Med Chem, 2017)
pIC50: −log10 of the molar value. Activity calls are given as the source filed them. The calls are words filed in the database; no cut-off is given here.

Experiments:
Mus musculus [1] = assay: Anticonvulsant activity in maximal electroshock induced seizure mouse model assessed as suppression in hindlimb tonic extension at 300 mg/kg, ip measured at 4 hrs post dose; assay type: functional, organism-based
Mus musculus [2] = assay: Anticonvulsant activity in pentylenetetrazole induced seizure mouse model assessed as no observable episode of clonic convulsion of at least 5 secs at 100 mg/kg, ip measured at 0.5 hrs post dose; assay type: functional, organism-based
Mus musculus [3] = assay: Anticonvulsant activity in maximal electroshock induced seizure mouse model assessed as suppression in hindlimb tonic extension at 300 mg/kg, ip measured at 0.5 hrs post dose; assay type: functional, organism-based
Mus musculus [4] = assay: Neurotoxicity in mouse assessed as induction of motor impairment at 30 mg/kg, ip measured at 0.5 hrs post dose by rotarod method; assay type: toxicity, organism-based; conditions: in vivo
Mus musculus [5] = assay: Neurotoxicity in mouse assessed as induction of motor impairment at 300 mg/kg, ip measured at 0.5 hrs post dose by rotarod method; assay type: toxicity, organism-based; conditions: in vivo
Mus musculus [6] = assay: Neurotoxicity in mouse assessed as induction of motor impairment at 100 mg/kg, ip measured at 4 hrs post dose by rotarod method; assay type: toxicity, organism-based; conditions: in vivo
Mus musculus [7] = assay: Anticonvulsant activity in pentylenetetrazole induced seizure mouse model assessed as no observable episode of clonic convulsion of at least 5 secs at 300 mg/kg, ip measured at 0.5 hrs post dose; assay type: functional, organism-based
Mus musculus [8] = assay: Neurotoxicity in mouse assessed as induction of motor impairment at 30 mg/kg, ip measured at 4 hrs post dose by rotarod method; assay type: toxicity, organism-based; conditions: in vivo
Mus musculus [9] = assay: Anticonvulsant activity in maximal electroshock induced seizure mouse model assessed as suppression in hindlimb tonic extension at 100 mg/kg, ip measured at 0.5 hrs post dose; assay type: functional, organism-based
Mus musculus [10] = assay: Anticonvulsant activity in ip dosed 6-Hz induced seizure mouse model assessed as restoration of normal activity within 10 secs from stimulation at 44 mA; assay type: functional
Rattus norvegicus [11] = assay: Anticonvulsant activity in po dosed pentylenetetrazole induced seizure rat model; assay type: functional
Mus musculus [12] = assay: Anticonvulsant activity in ip dosed pentylenetetrazole induced seizure mouse model; assay type: functional
Mus musculus [13] = assay: Neurotoxicity in mouse assessed as induction of motor impairment at 100 mg/kg, ip measured at 0.5 hrs post dose by rotarod method; assay type: toxicity, organism-based; conditions: in vivo
Rattus norvegicus [14] = assay: Neurotoxicity in Sprague-Dawley rat assessed as behavioral change at 30 mg/kg, ip measured at […] post dose; assay type: toxicity, organism-based; conditions: in vivo
Rattus norvegicus [15] = assay: Neurotoxicity in Sprague-Dawley rat assessed as behavioral change at 30 mg/kg, ip measured at 2 hrs post dose; assay type: toxicity, organism-based; conditions: in vivo
Rattus norvegicus [16] = assay: Neurotoxicity in Sprague-Dawley rat assessed as behavioral change at 30 mg/kg, ip measured at 1 hr post dose; assay type: toxicity, organism-based; conditions: in vivo
Rattus norvegicus [17] = assay: Neurotoxicity in Sprague-Dawley rat assessed as behavioral change at 30 mg/kg, ip measured at 4 hrs post dose; assay type: toxicity, organism-based; conditions: in vivo
Rattus norvegicus [18] = assay: Neurotoxicity in Sprague-Dawley rat assessed as behavioral change at 30 mg/kg, ip measured at 0.5 hrs post dose; assay type: toxicity, organism-based; conditions: in vivo
[19] = molecular target: Vasoactive intestinal polypeptide receptor 1 (Homo sapiens, UniProt P32241); assay: Displacement of [125I]VIP from human recombinant VPAC1 receptor expressed in CHO cells measured after 60 mins by scintillation counting method; assay type: cell-based
Chain of Vasoactive intestinal polypeptide receptor 1 (P32241 whole entry): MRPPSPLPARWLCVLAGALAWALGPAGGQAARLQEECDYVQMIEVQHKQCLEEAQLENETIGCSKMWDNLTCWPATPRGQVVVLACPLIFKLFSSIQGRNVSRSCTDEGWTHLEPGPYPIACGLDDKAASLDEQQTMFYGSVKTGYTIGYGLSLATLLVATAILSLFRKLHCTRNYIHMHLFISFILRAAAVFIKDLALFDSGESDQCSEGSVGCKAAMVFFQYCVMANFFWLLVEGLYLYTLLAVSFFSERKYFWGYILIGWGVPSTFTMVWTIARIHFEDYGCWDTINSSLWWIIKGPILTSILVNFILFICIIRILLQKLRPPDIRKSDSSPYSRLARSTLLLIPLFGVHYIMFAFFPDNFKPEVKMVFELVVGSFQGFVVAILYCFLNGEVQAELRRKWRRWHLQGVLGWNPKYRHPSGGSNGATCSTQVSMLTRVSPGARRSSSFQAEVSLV

Rattus norvegicus [20] = assay: Neurotoxicity in Sprague-Dawley rat assessed as behavioral change at 30 mg/kg, po measured at 1 hr post dose; assay type: toxicity, organism-based; conditions: in vivo
Rattus norvegicus [21] = assay: Neurotoxicity in Sprague-Dawley rat assessed as behavioral change at 30 mg/kg, po measured at 4 hrs post dose; assay type: toxicity, organism-based; conditions: in vivo
Rattus norvegicus [22] = assay: Neurotoxicity in Sprague-Dawley rat assessed as behavioral change at 30 mg/kg, po measured at 0.5 hrs post dose; assay type: toxicity, organism-based; conditions: in vivo
Rattus norvegicus [23] = assay: Neurotoxicity in Sprague-Dawley rat assessed as behavioral change at 30 mg/kg, po measured at 2 hrs post dose; assay type: toxicity, organism-based; conditions: in vivo
Rattus norvegicus [24] = assay: Neurotoxicity in Sprague-Dawley rat assessed as behavioral change at 30 mg/kg, po measured at […] post dose; assay type: toxicity, organism-based; conditions: in vivo
[25] = Displacement of [3H]D888 from rat cerebral cortex calcium channel L type verapamil binding site measured after 120 mins by scintillation counting method
Mus musculus [26] = assay: Neurotoxicity in mouse assessed as induction of motor impairment at 300 mg/kg, ip measured at 4 hrs post dose by rotarod method; assay type: toxicity, organism-based; conditions: in vivo
Mus musculus [27] = assay: Anticonvulsant activity in maximal electroshock induced seizure mouse model assessed as suppression in hindlimb tonic extension at 100 mg/kg, ip measured at 4 hrs post dose; assay type: functional, organism-based
Mus musculus [28] = assay: Anticonvulsant activity in maximal electroshock induced seizure mouse model assessed as suppression in hindlimb tonic extension at 30 mg/kg, ip measured at 4 hrs post dose; assay type: functional, organism-based
[29] = Displacement of [3H]a,b-MeATP from rat urinary bladder P2X receptor measured after 120 mins by scintillation counting method

Compound | Activity (Mus musculus [1]) | Activity (Mus musculus [3]) | Activity (Mus musculus [4]) | Activity (Mus musculus [6]) | Activity (Mus musculus [8]) | Activity (Rattus norvegicus [20]) | Activity (Rattus norvegicus [21]) | Activity (Rattus norvegicus [22]) | Activity (Rattus norvegicus [23]) | Activity (Rattus norvegicus [24]) | further results
Cc1ccccc1/C=C/C(=O)NCC(C)O (centres undefined) | Active | Active | Non-Toxic | Non-Toxic | Non-Toxic | – | – | – | – | – | Activity (Mus musculus [2]): Active; Activity (Mus musculus [5]): Toxic; Activity (Mus musculus [7]): Active; Activity (Mus musculus [9]): Active
CCCC(CCC)C(=O)O [VALPROIC ACID] | – | – | – | – | – | – | – | – | – | – | ED50 (Mus musculus [10]): 310 mg/kg; ED50 (Rattus norvegicus [11]): 646 mg/kg; ED50 (Mus musculus [12]): 220 mg/kg
CCC(O)CNC(=O)/C=C/c1ccc(C)cc1 (centres undefined) | – | – | – | Non-Toxic | – | – | – | – | – | – | Activity (Mus musculus [13]): Non-Toxic; Activity (Rattus norvegicus [14]): Non-Toxic; Activity (Rattus norvegicus [15]): Non-Toxic; Activity (Rattus norvegicus [16]): Non-Toxic; Activity (Rattus norvegicus [17]): Non-Toxic; Activity (Rattus norvegicus [18]): Non-Toxic
H-HSDAVFTDNYTRLRKQLAVKKYLNSILN-NH2 | – | – | – | – | – | – | – | – | – | – | pIC50 [19]: 9.96
CC(CO)NC(=O)/C=C/c1ccc(Cl)cc1 (centres undefined) | Active | Active | Non-Toxic | Non-Toxic | Non-Toxic | Non-Toxic | Non-Toxic | Non-Toxic | Non-Toxic | Non-Toxic | Activity (Mus musculus [2]): Active; Activity (Mus musculus [5]): Toxic; Activity (Mus musculus [7]): Active; Activity (Mus musculus [9]): Active
COc1ccc(CCN(C)CCCC(C#N)(c2cc(OC)c(OC)c(OC)c2)C(C)C)cc1OC (centres undefined) [GALLOPAMIL] | – | – | – | – | – | – | – | – | – | – | pIC50 [25]: 7.82
Cc1ccccc1/C=C/C(=O)N[C@H]1CC[C@H](O)CC1 | Active | – | Non-Toxic | – | Non-Toxic | Non-Toxic | Non-Toxic | Non-Toxic | Non-Toxic | Non-Toxic | Activity (Mus musculus [26]): Non-Toxic; Activity (Mus musculus [27]): Active; Activity (Mus musculus [28]): Active
CC(C)(CO)NC(=O)/C=C/c1ccc(Cl)cc1 | Active | Active | Non-Toxic | Non-Toxic | Non-Toxic | Non-Toxic | Non-Toxic | Non-Toxic | Non-Toxic | Non-Toxic | Activity (Mus musculus [13]): Non-Toxic; Activity (Mus musculus [26]): Non-Toxic; Activity (Rattus norvegicus [14]): Non-Toxic; Activity (Rattus norvegicus [15]): Non-Toxic; Activity (Rattus norvegicus [16]): Non-Toxic; Activity (Rattus norvegicus [17]): Non-Toxic; Activity (Rattus norvegicus [18]): Non-Toxic
Nc1ncnc2c1ncn2[C@@H]1O[C@H](COP(=O)(O)CP(=O)(O)OP(=O)(O)O)[C@@H](O)[C@H]1O [DIPHOSPHOMETHYLPHOSPHONIC ACID ADENOSYL ESTER] | – | – | – | – | – | – | – | – | – | – | pIC50 [29]: 8.72
